Source: US12391664B2, “GluN2C/D subunit selective antagonists of the N-methyl-D-aspartate receptor” (Emory University, priority 2018, dated 2025)

Key:
[1] = target: GluN2C subunit (Homo sapiens, UniProt Q14957); settings: read-out: EC50 (potentiation at GluN2C subunit); cited from earlier work
[2] = target: T1, recombinant rat GluN1/GluN2D (Rattus norvegicus, UniProt Q62645); experiment: Two-electrode voltage-clamp recordings in Xenopus laevis oocytes, GluN2D; format: cell-based; settings: oocytes, 100 μM glutamate and 30 μM glycine
T1 construct: expressed in transfected cells; host or cells: Xenopus laevis oocytes injected with cRNA (GluN1:GluN2 ratio 1:2)
T1 sequence (Q62645 28-1323, other chains not shown): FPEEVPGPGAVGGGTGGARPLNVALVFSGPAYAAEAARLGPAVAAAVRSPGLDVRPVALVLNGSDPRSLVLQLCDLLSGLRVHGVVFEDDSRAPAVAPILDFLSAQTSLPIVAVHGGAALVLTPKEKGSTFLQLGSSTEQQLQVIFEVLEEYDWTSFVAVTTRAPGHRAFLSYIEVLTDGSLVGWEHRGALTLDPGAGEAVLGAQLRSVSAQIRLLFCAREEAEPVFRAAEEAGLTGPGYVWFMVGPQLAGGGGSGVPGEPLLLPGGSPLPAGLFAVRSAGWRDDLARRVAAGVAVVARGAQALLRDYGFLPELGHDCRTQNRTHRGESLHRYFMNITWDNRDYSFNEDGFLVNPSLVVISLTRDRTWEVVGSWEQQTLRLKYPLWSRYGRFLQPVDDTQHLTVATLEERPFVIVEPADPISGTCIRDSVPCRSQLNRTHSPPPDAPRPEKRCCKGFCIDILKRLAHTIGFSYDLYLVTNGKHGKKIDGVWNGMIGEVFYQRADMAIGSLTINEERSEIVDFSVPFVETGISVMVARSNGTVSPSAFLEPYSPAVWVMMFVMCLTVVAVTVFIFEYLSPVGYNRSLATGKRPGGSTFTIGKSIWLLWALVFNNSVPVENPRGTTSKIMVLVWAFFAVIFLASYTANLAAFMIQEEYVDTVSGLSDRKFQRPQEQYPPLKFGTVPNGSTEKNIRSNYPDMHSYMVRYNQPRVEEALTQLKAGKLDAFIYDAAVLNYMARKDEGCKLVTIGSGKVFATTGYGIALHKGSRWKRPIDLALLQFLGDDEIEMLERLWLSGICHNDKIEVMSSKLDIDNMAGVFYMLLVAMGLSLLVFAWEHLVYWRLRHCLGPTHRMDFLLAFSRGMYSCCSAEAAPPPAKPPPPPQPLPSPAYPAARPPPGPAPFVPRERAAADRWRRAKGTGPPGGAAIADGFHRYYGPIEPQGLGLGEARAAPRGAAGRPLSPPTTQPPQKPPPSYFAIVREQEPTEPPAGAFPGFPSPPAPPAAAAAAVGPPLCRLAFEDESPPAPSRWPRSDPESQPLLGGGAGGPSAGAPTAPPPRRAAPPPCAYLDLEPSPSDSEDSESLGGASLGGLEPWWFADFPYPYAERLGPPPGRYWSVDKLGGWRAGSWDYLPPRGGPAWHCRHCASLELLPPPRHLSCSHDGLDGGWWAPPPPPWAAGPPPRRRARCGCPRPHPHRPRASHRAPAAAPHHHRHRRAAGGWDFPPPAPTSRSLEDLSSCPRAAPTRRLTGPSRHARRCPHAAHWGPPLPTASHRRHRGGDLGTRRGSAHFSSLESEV
In short: (§1)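 Oocytes injected with rat GluN1/GluN2 cRNA (1:2), held 2–5 days at 15–17 °C, clamped at −40 mV in Ba2+-containing recording solution, pH 7.4, 23 °C. Compounds applied (up to 100 μM) with 100 μM glutamate plus 30 μM glycine. IC50 and Hill slope from concentration-response fits of averaged current inhibition.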

[3] = target: T2, recombinant rat GluN1/GluN2A (Rattus norvegicus, UniProt Q00959); experiment: Two-electrode voltage-clamp recordings in Xenopus laevis oocytes, GluN2A; format: cell-based; settings: oocytes, 100 μM glutamate and 30 μM glycine
T2 construct: expressed in transfected cells; host or cells: Xenopus laevis oocytes injected with cRNA (GluN1:GluN2 ratio 1:2)
T2 sequence (Q00959 23-1464, other chains not shown): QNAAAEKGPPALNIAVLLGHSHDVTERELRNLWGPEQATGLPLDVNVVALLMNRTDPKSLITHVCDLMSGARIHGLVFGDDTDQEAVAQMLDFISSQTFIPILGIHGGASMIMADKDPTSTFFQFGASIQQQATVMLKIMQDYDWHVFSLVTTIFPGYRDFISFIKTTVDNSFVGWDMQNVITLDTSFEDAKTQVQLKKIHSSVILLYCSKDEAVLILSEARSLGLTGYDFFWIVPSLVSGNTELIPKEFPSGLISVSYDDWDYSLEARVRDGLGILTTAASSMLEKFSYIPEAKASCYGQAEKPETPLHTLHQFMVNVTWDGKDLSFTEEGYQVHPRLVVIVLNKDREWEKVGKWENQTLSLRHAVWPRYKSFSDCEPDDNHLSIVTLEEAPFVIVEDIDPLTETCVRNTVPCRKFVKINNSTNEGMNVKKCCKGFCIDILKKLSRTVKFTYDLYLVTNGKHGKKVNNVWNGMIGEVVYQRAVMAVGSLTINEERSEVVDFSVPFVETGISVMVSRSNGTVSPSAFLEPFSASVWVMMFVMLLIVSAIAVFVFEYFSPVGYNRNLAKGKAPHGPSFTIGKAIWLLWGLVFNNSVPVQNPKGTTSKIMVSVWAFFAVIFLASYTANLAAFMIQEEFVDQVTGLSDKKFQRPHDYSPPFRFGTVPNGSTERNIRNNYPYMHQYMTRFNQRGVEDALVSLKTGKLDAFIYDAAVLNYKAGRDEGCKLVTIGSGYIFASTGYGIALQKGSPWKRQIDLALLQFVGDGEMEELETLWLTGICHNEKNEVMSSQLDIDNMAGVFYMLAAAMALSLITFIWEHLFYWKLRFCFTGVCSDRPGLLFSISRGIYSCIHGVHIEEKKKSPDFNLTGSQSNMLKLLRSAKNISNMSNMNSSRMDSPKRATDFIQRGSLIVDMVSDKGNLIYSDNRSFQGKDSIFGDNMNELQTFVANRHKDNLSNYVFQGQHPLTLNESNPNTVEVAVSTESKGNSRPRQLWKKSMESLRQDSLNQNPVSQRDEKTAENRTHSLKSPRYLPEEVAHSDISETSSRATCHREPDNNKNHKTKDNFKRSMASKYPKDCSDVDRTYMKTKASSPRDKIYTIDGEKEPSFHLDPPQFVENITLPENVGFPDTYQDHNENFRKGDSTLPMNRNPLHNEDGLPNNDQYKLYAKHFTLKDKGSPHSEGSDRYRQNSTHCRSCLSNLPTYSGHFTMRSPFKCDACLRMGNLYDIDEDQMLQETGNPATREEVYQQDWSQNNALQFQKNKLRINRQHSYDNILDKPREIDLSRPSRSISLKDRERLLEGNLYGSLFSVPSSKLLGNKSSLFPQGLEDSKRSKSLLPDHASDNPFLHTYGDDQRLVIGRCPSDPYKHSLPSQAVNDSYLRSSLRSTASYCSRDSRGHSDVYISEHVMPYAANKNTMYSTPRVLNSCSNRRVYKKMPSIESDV
In short: as §1

[4] = tested on: recombinant GluN2A-D subunits; experiment: Two-electrode voltage-clamp recordings, statements on all receptors; format: cell-based, rat
Protocol: All target compounds were evaluated for activity by the Traynelis laboratory at Emory University using two-electrode voltage-clamp recordings performed in Xenopus laevis oocytes expressing recombinant GluN2A-D subunits (Table 1). […] Two ester compounds 997-65 and 997-66 also performed no inhibition at GluN2A to GluN2D receptors. […] Consequently, for the compounds that Acker et al. already published, it was necessary to increase the concentration to 100 μM when collecting data for a concentration effect curve. […] Therefore, under this condition, we can only conclude that compound 997-67 remained potent at GluN2C/D-containing receptors, but its selectivity over GluN2A- and GluN2B-containing receptors could not be compared to 997-57. […] Finally, replacing the carboxylic acid to the bio-isostere amide yielded compounds 997-96 and 997-115, which dropped the potency 2- to 4-fold in comparison to their corresponding acids 997-74 and 997-114.
Two-electrode voltage-clamp recordings were performed in Xenopus laevis oocytes that were injected with mRNA to express recombinant rat GluN1/GluN2A, GluN1/GluN2B, GluN1/GluN2C, and GluN1/GluN2D. The recordings using unfertilized oocytes from Xenopus laevis were permitted by Emory University Institutional Animal Care and Use Committee (IACUC). An automatic injector (Nanoject II, Drummond Scientific) was used for cRNA injection using the pipettes filled with mineral oil. The cRNA that transcribed in vitro via the mMessage Machine kit (Ambion) was diluted with nuclease-free water, and then injected at GluN1/GluN2 with a ratio of 1:2. The oocytes were stored in Barth's solution that contained 88 mM NaCl, 5.0 mM Tris-HCl, 2.4 mM NaHCO3, 1.0 mM KCl, 0.84 mM MgSO4, 0.41 mM CaCl2, 0.33 mM Ca(NO3)2, 0.1 mg/ml gentamycin sulfate, 1.0 U/ml penicillin, and 1 μg/ml streptomycin at a pH of 7.4 and temperatures of 15-17° C. for two to five days before the two-electrode voltage-clamp recordings. When recording, the oocytes were placed in a perfusion chamber and continually washed with the recording solution comprised of 90 mM NaCl, 1.0 mM KCl, 0.50 mM BaCl2, 0.005 mM EDTA, and 10 mM HEPES at a pH of 7.4 and a temperature of 23° C. Glass electrodes with a tip resistance of 0.5 to 2.5 MΩ were obtained from thin-walled glass capillary tubes. Voltage electrodes and current electrodes were filled with 0.3 M and 3.0 M KCl, respectively. The recordings were executed with the oocytes membrane potential holding at −40 m V by an OC-725 amplifier (Warner Instrument Co). All compounds were dissolved in dimethyl sulfoxide (DMSO) as 20 mM stock solutions and future diluted to reach the desired concentration (0.05-0.5% (vol/vol) DMSO) in recording solution comprised of 30 μM glycine and 100 μM glutamate. Each compound was recorded 3-7 times in the least 4 oocytes from at least 2 different Xenopus laevis.
To evaluate the inhibition of compounds, the concentration-response curve was fitted with the average two-electrode voltage-clamp recording results with the equation
[formula] • where IC50 is the concentration of compounds that inhibit half maximal of the current response and N is the Hill slope.

[5] = target: T3, recombinant rat GluN1/GluN2C (Rattus norvegicus, UniProt Q00961); experiment: Two-electrode voltage-clamp recordings in Xenopus laevis oocytes, GluN2C; format: cell-based; settings: oocytes, 100 μM glutamate and 30 μM glycine
T3 construct: expressed in transfected cells; host or cells: Xenopus laevis oocytes injected with cRNA (GluN1:GluN2 ratio 1:2)
T3 sequence (Q00961 20-1237, other chains not shown): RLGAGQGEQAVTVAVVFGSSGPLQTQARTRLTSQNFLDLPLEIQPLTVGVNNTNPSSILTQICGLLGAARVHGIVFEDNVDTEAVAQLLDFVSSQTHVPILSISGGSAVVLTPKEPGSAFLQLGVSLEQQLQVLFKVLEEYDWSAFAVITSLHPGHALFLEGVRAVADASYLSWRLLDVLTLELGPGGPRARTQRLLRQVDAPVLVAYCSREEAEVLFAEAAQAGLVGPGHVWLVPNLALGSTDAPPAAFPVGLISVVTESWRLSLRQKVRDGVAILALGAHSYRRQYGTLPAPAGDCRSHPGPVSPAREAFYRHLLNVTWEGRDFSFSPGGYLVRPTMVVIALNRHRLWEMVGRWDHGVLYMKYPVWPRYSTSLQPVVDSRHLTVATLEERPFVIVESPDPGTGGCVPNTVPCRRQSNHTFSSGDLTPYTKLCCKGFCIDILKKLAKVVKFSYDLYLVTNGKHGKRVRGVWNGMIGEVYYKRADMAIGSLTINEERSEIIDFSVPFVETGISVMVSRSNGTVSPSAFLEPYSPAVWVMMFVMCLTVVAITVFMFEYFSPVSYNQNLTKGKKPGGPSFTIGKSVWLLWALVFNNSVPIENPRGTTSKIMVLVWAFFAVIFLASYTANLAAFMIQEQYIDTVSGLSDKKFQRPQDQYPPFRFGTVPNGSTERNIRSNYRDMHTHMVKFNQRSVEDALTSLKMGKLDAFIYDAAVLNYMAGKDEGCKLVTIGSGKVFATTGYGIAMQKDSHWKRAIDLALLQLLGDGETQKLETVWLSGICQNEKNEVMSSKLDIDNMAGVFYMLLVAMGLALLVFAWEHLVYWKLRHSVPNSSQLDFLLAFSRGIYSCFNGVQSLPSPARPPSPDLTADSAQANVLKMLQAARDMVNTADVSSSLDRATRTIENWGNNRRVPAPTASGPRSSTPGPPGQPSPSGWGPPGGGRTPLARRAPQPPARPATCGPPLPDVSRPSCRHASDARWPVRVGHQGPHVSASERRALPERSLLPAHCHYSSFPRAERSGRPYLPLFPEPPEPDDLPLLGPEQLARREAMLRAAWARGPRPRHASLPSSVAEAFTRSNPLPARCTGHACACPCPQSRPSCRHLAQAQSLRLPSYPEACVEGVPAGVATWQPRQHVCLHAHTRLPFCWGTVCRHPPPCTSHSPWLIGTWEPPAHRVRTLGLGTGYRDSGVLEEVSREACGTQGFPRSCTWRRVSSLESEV
In short: as §1

[6] = target: T4, recombinant rat GluN1/GluN2B (Rattus norvegicus, UniProt Q00960); experiment: Two-electrode voltage-clamp recordings in Xenopus laevis oocytes, GluN2B; format: cell-based; settings: oocytes, 100 μM glutamate and 30 μM glycine
T4 construct: expressed in transfected cells; host or cells: Xenopus laevis oocytes injected with cRNA (GluN1:GluN2 ratio 1:2)
In short: as §1

[7] = target: NMDA receptors that contain GluN2B (Homo sapiens, UniProt Q05586+Q13224); settings: cited from earlier work
[8] = tested on: GluN2C- and GluN2D; settings: GluN2C- and GluN2D-selective potentiator; read-out: EC50 (potentiation); cited from earlier work

| SMILES | EC50 [1] | GluN2D IC50 [2] | GluN2A IC50 [3] | activity at all receptors (GluN2A to GluN2D), in words [4] | GluN2C IC50 [5] | GluN2B IC50 [6] | fold more potent at GluN2B than at GluN2A, GluN2C or GluN2D containing receptors [7] | EC50 [8] |
| --- | --- | --- | --- | --- | --- | --- | --- | --- |
| COC(=O)c1ccc(C2C(C(C)=O)=C(O)C(=O)N2CCc2c(C)[nH]c3ccccc23)cc1 (stereo not shown) [PYD-106] | 13 µM |  |  |  |  |  |  |  |
| CCOC(=O)C(F)(F)CC(=O)N1N=C(c2c(-c3ccc(Cl)cc3)c3ccccc3[nH]c2=O)CC1c1ccc(Cl)cc1 (stereo not shown) [997-66, Ethyl 4-{5-(4-chlorophenyl)-3-[4-(4-chlorophenyl)-2-oxo-1,2-dihydroquinolin-3-yl]-4,5-dihydro-1H-pyrazol-1-yl}-2,2-difluoro-4-oxobutanoate] |  | NE (NE indicates less than 50% inhibition at 30 μM.) | NE (NE indicates less than 50% inhibition at 30 μM.) | no inhibition | NE (NE indicates less than 50% inhibition at 30 μM.) | NE (NE indicates less than 50% inhibition at 30 μM.) |  |  |
| O=C(O)CCC(=O)N1N=C(c2c(-c3ccc(Cl)cc3)c3ccccc3[nH]c2=O)CC1c1ccncc1Cl (stereo not shown) [997-88, 4-(3-(4-(4-chlorophenyl)-2-oxo-1,2-dihydroquinolin-3-yl)-5-(3-chloropyridin-4-yl)-4,5-dihydro-1H-pyrazol-1-yl)-4-oxobutanoic acid] |  | NE (NE indicates less than 50% inhibition at 30 μM.) | NE (NE indicates less than 50% inhibition at 30 μM.) | inactive | NE (NE indicates less than 50% inhibition at 30 μM.) | NE (NE indicates less than 50% inhibition at 30 μM.) |  |  |
| CC(C(O)c1ccc(O)cc1)N1CCC(Cc2ccccc2)CC1 (stereo not shown) [Ifenprodil] |  |  |  |  |  |  | approximately 200 fold |  |
| Cc1c(C2=NN(C(=O)CCC(=O)O)C(c3ccc(Cl)cc3)C2)c(=O)[nH]c2ccccc12 (stereo not shown) [997-76, 4-(5-(4-chlorophenyl)-3-(4-methyl-2-oxo-1,2-dihydroquinolin-3-yl)-4,5-dihydro-1H-pyrazol-1-yl)-4-oxobutanoic acid] |  | NE (NE indicates less than 50% inhibition at 30 μM.) | NE (NE indicates less than 50% inhibition at 30 μM.) | inactive | NE (NE indicates less than 50% inhibition at 30 μM.) | NE (NE indicates less than 50% inhibition at 30 μM.) |  |  |
| COc1ccc(OCC2c3cc(OC)c(OC)cc3CCN2C(=O)c2cccc(Cl)c2)cc1 (stereo not shown) [CIQ, (3-chlorophenyl)(6,7-dimethoxy-1-((4-methoxyphenoxy)methyl)3,4-dihydroisoquinolin-2(1H)-yl)methanone] |  |  |  |  |  |  |  | 3 to 6 µM |
| CCOC(=O)C(F)(F)CC(=O)N1N=C(c2c(-c3cccc(F)c3)c3ccccc3[nH]c2=O)CC1c1ccc(Cl)cc1 (stereo not shown) [997-65, Ethyl 4-{5-(4-chlorophenyl)-3-[4-(3-fluorophenyl)-2-oxo-1,2-dihydroquinolin-3-yl]-4,5-dihydro-1H-pyrazol-1-yl}-2,2-difluoro-4-oxobutanoate] |  | NE (NE indicates less than 50% inhibition at 30 μM.) | NE (NE indicates less than 50% inhibition at 30 μM.) | no inhibition | NE (NE indicates less than 50% inhibition at 30 μM.) | NE (NE indicates less than 50% inhibition at 30 μM.) |  |  |
| O=C(O)CCC(=O)N1N=C(c2ccccc2-c2ccc(Cl)cc2)CC1c1cccc2c1OCO2 (stereo not shown) [997-122, 4-(5-(benzo[d][1,3]dioxol-4-yl)-3-(4′-chloro-[1,1′-biphenyl]-2-yl)-4,5-dihydro-1H-pyrazol-1-yl)-4-oxobutanoic acid] |  | NE (NE indicates less than 50% inhibition at 30 μM.) | NE (NE indicates less than 50% inhibition at 30 μM.) | inactive | NE (NE indicates less than 50% inhibition at 30 μM.) | NE (NE indicates less than 50% inhibition at 30 μM.) |  |  |
| O=C(/C=C/c1ccc(Cl)cc1)c1c(-c2cccc(F)c2)c2ccccc2[nH]c1=O [997-71, (E)-3-[3-(4-chlorophenyl)acryloyl]-4-(3-fluorophenyl)quinolin-2(1H)-one] |  | NE (NE indicates less than 50% inhibition at 30 μM.) | NE (NE indicates less than 50% inhibition at 30 μM.) | inactive | NE (NE indicates less than 50% inhibition at 30 μM.) | NE (NE indicates less than 50% inhibition at 30 μM.) |  |  |
| O=C(O)CCC(=O)N1N=C(c2c(-c3ccc(Cl)cc3)c3ccccc3[nH]c2=O)CC1c1ccncc1 (stereo not shown) [997-79, 4-(3-(4-(4-chlorophenyl)-2-oxo-1,2-dihydroquinolin-3-yl)-5-(pyridin-4-yl)-4,5-dihydro-1H-pyrazol-1-yl)-4-oxobutanoic acid] |  | NE (NE indicates less than 50% inhibition at 30 μM.) | NE (NE indicates less than 50% inhibition at 30 μM.) | inactive | NE (NE indicates less than 50% inhibition at 30 μM.) | NE (NE indicates less than 50% inhibition at 30 μM.) |  |  |
| O=C(O)CCC(=O)N1N=C(c2c(-c3ccc(Cl)cc3)c3ccccc3[nH]c2=O)CC1c1cnccn1 (stereo not shown) [997-80, 4-(3-(4-(4-chlorophenyl)-2-oxo-1,2-dihydroquinolin-3-yl)-5-(pyrazin-2-yl)-4,5-dihydro-1H-pyrazol-1-yl)-4-oxobutanoic acid] |  | NE (NE indicates less than 50% inhibition at 30 μM.) | NE (NE indicates less than 50% inhibition at 30 μM.) | inactive | NE (NE indicates less than 50% inhibition at 30 μM.) | NE (NE indicates less than 50% inhibition at 30 μM.) |  |  |
